Laboratory results taken from ChEMBL document CHEMBL1250481, “Isoxazole analogs of curcuminoids with highly potent multidrug-resistant antimycobacterial activity” (2010).
Converted amounts (≈) assume the structure as drawn. The source made the active and inactive calls. No cut-off for these calls is given here.

What follows are molecules tested on Mycobacterium tuberculosis (assay: Antimycobacterial activity against Mycobacterium tuberculosis H37Ra at 200 ug/ml after 24 hrs by microtiter alamar blue assay).
Assay type: functional, organism-based

Compound | MIC
COc1ccc(/C=C/c2cc(/C=C/c3ccc(OC)cc3)on2)cc1 | inactive
COc1cc(CCC(O)CC(O)CCc2ccc(O)c(OC)c2)ccc1O (stereo not drawn) | inactive
C=CCOc1ccc(/C=C/C(=O)CC(=O)/C=C/c2ccc(OCC=C)c(OC)c2)cc1OC | inactive
CCCCCOc1ccc(/C=C/c2cc(/C=C/c3ccc(OCCCCC)c(OC)c3)on2)cc1OC | inactive

These molecules were tested on Mycobacterium tuberculosis (assay: Antimycobacterial activity against Pan-sensitive Mycobacterium tuberculosis H37Ra after 24 hrs by microtiter alamar blue assay).
Assay type: functional

Compound | MIC
COc1cc(/C=C/c2cc(/C=C/c3ccc(OC)c(OC)c3)on2)ccc1O | 0.78 µg/mL (≈ 2.06 µM)
CCCCCOc1ccc(/C=C/c2cc(/C=C/c3ccc(O)c(OC)c3)on2)cc1OC | 0.39 µg/mL (≈ 0.895 µM)
CCCCCOc1ccc(/C=C/c2cc(/C=C/c3ccc(O)c(OC)c3)no2)cc1OC | 6.25 µg/mL (≈ 14.4 µM)
COc1cc(/C=C/c2cc(/C=C/c3ccc(OC)c(OC)c3)no2)ccc1O | 0.09 µg/mL (≈ 0.237 µM)

Each molecule was assayed on Mycobacterium tuberculosis (assay: Antimycobacterial activity against Mycobacterium tuberculosis H37Ra after 24 hrs by microtiter alamar blue assay).
Assay type: functional

Compound | MIC
COc1ccc(/C=C/c2cc(/C=C/c3ccc(OC)c(OC)c3)on2)cc1OC | 0.39 µg/mL (≈ 0.991 µM)
CCCCCOc1ccc(/C=C/C(=O)CC(=O)/C=C/c2ccc(O)c(OC)c2)cc1OC | 12.5 µg/mL (≈ 28.5 µM)
COc1cc(CC/C=C/C(=O)CCc2ccc(O)c(OC)c2)ccc1O | 25 µg/mL (≈ 70.1 µM)
NNC(=O)c1ccncc1 [ISONIAZID] | 0.06 µg/mL (≈ 0.438 µM)
COc1cc(/C=C/C(=O)CC(=O)/C=C/c2ccc(OC(C)=O)c(OC)c2)ccc1OC(C)=O | 200 µg/mL (≈ 442 µM)
COc1cc(/C=C/c2cc(/C=C/c3ccc(OC)c(OC)c3)on2)ccc1O | 0.78 µg/mL (≈ 2.06 µM)
COc1cc(/C=C/C(=O)CC(=O)/C=C/c2ccc(O)c(O)c2)ccc1O | 200 µg/mL (≈ 564 µM)
COc1cc(CCc2cc(CCc3ccc(O)c(OC)c3)on2)ccc1O | 100 µg/mL (≈ 271 µM)
COc1cc(/C=C/C(=O)CC(=O)/C=C/c2ccc(OC(C)=O)c(OC)c2)ccc1O | 100 µg/mL (≈ 244 µM)
COc1cc(/C=C/C=C/C(=O)CCc2ccc(O)c(OC)c2)ccc1O | 25 µg/mL (≈ 70.5 µM)
O=C(/C=C/c1ccc(O)c(O)c1)CC(=O)/C=C/c1ccc(O)c(O)c1 [DIDEMETHYLCURCUMIN] | 100 µg/mL (≈ 294 µM)
COc1cc(/C=C/C(=O)CC(=O)/C=C/c2ccc(OC)c(OC)c2)ccc1O | 50 µg/mL (≈ 131 µM)
CCCOc1ccc(/C=C/C(=O)CC(=O)/C=C/c2ccc(OCCC)c(OC)c2)cc1OC | 200 µg/mL (≈ 442 µM)
COc1cc(/C=C/c2cc(CCc3ccc(O)c(OC)c3)on2)ccc1O | 6.25 µg/mL (≈ 17 µM)
COc1cc(/C=C/c2cc(/C=C/c3ccc(OC(C)=O)c(OC)c3)on2)ccc1OC(C)=O | 1.56 µg/mL (≈ 3.47 µM)
CC(=O)Oc1ccc(/C=C/C(=O)CC(=O)/C=C/c2ccc(OC(C)=O)cc2)cc1 | 25 µg/mL (≈ 63.7 µM)
COc1cc(/C=C/c2cc(/C=C/c3ccc(O)cc3)[nH]n2)ccc1O | 100 µg/mL (≈ 299 µM)
CCCCCOc1ccc(/C=C/c2cc(/C=C/c3ccc(O)c(OC)c3)on2)cc1OC | 0.39 µg/mL (≈ 0.895 µM)
CO[C@H]1/C=C/O[C@@]2(C)Oc3c(C)c(O)c4c(O)c(c(/C=N/N5CCN(C)CC5)c(O)c4c3C2=O)NC(=O)/C(C)=C\C=C\[C@H](C)[C@H](O)[C@@H](C)[C@@H](O)[C@@H](C)[C@H](OC(C)=O)[C@@H]1C [RIFAMPIN] | 0.004 µg/mL (≈ 0.00486 µM)
NC[C@H]1O[C@H](O[C@H]2[C@H](O)[C@@H](O[C@H]3O[C@H](CO)[C@@H](O)[C@H](N)[C@H]3O)[C@H](N)C[C@@H]2N)[C@H](O)[C@@H](O)[C@@H]1O [KANAMYCIN] | 2.5 µg/mL (≈ 5.16 µM)
COc1cc(/C=C/C(O)=C/C(=O)/C=C/c2ccc(O)cc2)ccc1O [DEMETHOXYCURCUMIN] | 50 µg/mL (≈ 148 µM)
CCCOc1ccc(/C=C/C(=O)CC(=O)/C=C/c2ccc(O)c(OC)c2)cc1OC | 25 µg/mL (≈ 60.9 µM)
COc1cc(/C=C/c2cc(/C=C/c3ccc(O)c(OC)c3)n(-c3ccccc3)n2)ccc1O | 25 µg/mL (≈ 56.8 µM)
Oc1ccc(/C=C/c2cc(/C=C/c3ccc(O)cc3)on2)cc1 | 12.5 µg/mL (≈ 40.9 µM)
COc1cc(CCC(=O)CC(=O)CCc2ccc(O)c(OC)c2)ccc1O [TETRAHYDROCURCUMIN] | 50 µg/mL (≈ 134 µM)

Compound | MIC
Oc1ccc(/C=C/c2cc(/C=C/c3ccc(O)c(O)c3)on2)cc1O | 200 µg/mL (≈ 593 µM)
COc1cc(CCC(=O)CC(O)CCc2ccc(O)c(OC)c2)ccc1O (stereo not drawn) [HEXAHYDROCURCUMIN] | 100 µg/mL (≈ 267 µM)
COc1cc(/C=C/c2cc(/C=C/c3ccc(OC(C)=O)c(OC)c3)no2)ccc1O | 1.56 µg/mL (≈ 3.83 µM)
COc1cc(/C=C/C(=O)CC(=O)/C=C/c2ccc(O)cc2)ccc1OC(C)=O | 50 µg/mL (≈ 131 µM)
COc1cc(/C=C/c2cc(/C=C/c3ccc(O)c(OC)c3)[nH]n2)ccc1O [CURCUMIN PYRAZOLE] | 200 µg/mL (≈ 549 µM)
CC(=O)Oc1ccc(/C=C/C(=O)CC(=O)/C=C/c2ccc(O)cc2)cc1 | 25 µg/mL (≈ 71.4 µM)
COc1cc(/C=C/C(=O)/C=C/CCc2ccc(O)c(OC)c2)ccc1O | 12.5 µg/mL (≈ 35.3 µM)
O=C(/C=C/c1ccc(O)cc1)CC(=O)/C=C/c1ccc(O)c(O)c1 | 200 µg/mL (≈ 617 µM)
CCCCCOc1ccc(/C=C/C(=O)CC(=O)/C=C/c2ccc(OCCCCC)c(OC)c2)cc1OC | 100 µg/mL (≈ 197 µM)
COc1cc(/C=C/C(=O)CC(=O)/C=C/c2ccc(OCCO)c(OC)c2)ccc1OCCO | 200 µg/mL (≈ 438 µM)
COc1cc(CCCCC(=O)CCc2ccc(O)c(OC)c2)ccc1O | 100 µg/mL (≈ 279 µM)
COc1cc(/C=C/C=C/C(=O)/C=C/c2ccc(O)c(OC)c2)ccc1O | 12.5 µg/mL (≈ 35.5 µM)
O=C(/C=C/c1ccc(O)cc1)CC(=O)/C=C/c1ccc(O)cc1 [BISDEMETHOXYCURCUMIN] | 25 µg/mL (≈ 81.1 µM)
COc1cc(/C=C/C(=O)CC(=O)/C=C/c2ccc(OCCO)c(OC)c2)ccc1O | 200 µg/mL (≈ 485 µM)
COc1cc(/C=C/c2cc(/C=C/c3ccc(O)c(OC)c3)on2)ccc1O | 1.56 µg/mL (≈ 4.27 µM)
COc1cc(/C=C/C(=O)CC(=O)/C=C/c2ccc(OC(C)=O)cc2)ccc1OC(C)=O | 100 µg/mL (≈ 237 µM)
COc1cc(/C=C/C(=O)CC(=O)/C=C/c2ccc(O)c(OC)c2)ccc1O [CURCUMIN] | 100 µg/mL (≈ 271 µM)
CCCCCOc1ccc(/C=C/c2cc(/C=C/c3ccc(O)c(OC)c3)no2)cc1OC | 6.25 µg/mL (≈ 14.4 µM)
COc1cc(/C=C/C(=O)CC(=O)/C=C/c2ccc(OC(C)=O)cc2)ccc1O | 50 µg/mL (≈ 131 µM)
Oc1ccc(/C=C/c2cc(/C=C/c3ccc(O)cc3)[nH]n2)cc1 | 25 µg/mL (≈ 82.1 µM)
C=CCOc1ccc(/C=C/C(=O)CC(=O)/C=C/c2ccc(O)c(OC)c2)cc1OC | 100 µg/mL (≈ 245 µM)
COc1cc(/C=C/C(=O)CC(=O)CCc2ccc(O)c(OC)c2)ccc1O | 200 µg/mL (≈ 540 µM)
COc1cc(/C=C/c2cc(/C=C/c3ccc(OC)c(OC)c3)no2)ccc1O | 0.09 µg/mL (≈ 0.237 µM)
COc1ccc(/C=C/C(=O)CC(=O)/C=C/c2ccc(OC)c(OC)c2)cc1OC [TETRAMETHOXYCURCUMIN] | 100 µg/mL (≈ 252 µM)
COc1cc(/C=C/c2cc(/C=C/c3ccc(OC(C)=O)c(OC)c3)on2)ccc1O | 1.56 µg/mL (≈ 3.83 µM)
